Measurements as given in paper doi:10.1101/2021.06.10.447714v2 (bioRxiv, 2021).
Blank lines part the entries; values can stand above or below the compound they belong to.

How the values were obtained:
Assay type in all cases: biochemical
[1] = target: T1, insulin degrading enzyme (IDE) (Homo sapiens, UniProt P14735); assay: SDS-PAGE assay for ghrelin proteolysis by IDE; settings: EDTA added to the enzyme pre-mixture, 50 mM Tris pH 7.3, 37 °C
[2] = target: T1, insulin degrading enzyme (IDE); assay: Identification of IDE-mediated cleavage sites by HPLC and MALDI-TOF; settings: HPLC (C-18) and MALDI-TOF; 50 mM Tris pH 7.3, 37 °C; three runs
[3] = target: T1, insulin degrading enzyme (IDE); assay: Circular dichroism analysis of insulin degradation by IDE; settings: CD at 222 nm and LC, substrate:enzyme ratio 100:1, 37 °C

- inhibition of IDE-mediated ghrelin proteolysis [1]: inhibited
Compound: O=C(O)CN(CCN(CC(=O)O)CC(=O)O)CC(=O)O [EDTA, ethylenediaminetetraacetate]

- IDE-mediated cleavage sites (initial) [2]: Q13/ Q14, Q14/R15 and possibly Q10/R11
Compound: CCCCCCCC(=O)OC[C@H](NC(=O)[C@H](CO)NC(=O)CN)C(=O)N[C@@H](Cc1ccccc1)C(=O)N[C@@H](CC(C)C)C(=O)N[C@@H](CO)C(=O)N1CCC[C@H]1C(=O)N[C@@H](CCC(=O)O)C(=O)N[C@@H](Cc1cnc[nH]1)C(=O)N[C@@H](CCC(N)=O)C(=O)N[C@@H](CCCNC(=N)N)C(=O)N[C@H](C(=O)N[C@@H](CCC(N)=O)C(=O)N[C@@H](CCC(N)=O)C(=O)N[C@@H](CCCNC(=N)N)C(=O)N[C@@H](CCCCN)C(=O)N[C@@H](CCC(=O)O)C(=O)N[C@@H](CO)C(=O)N[C@@H](CCCCN)C(=O)N[C@@H](CCCCN)C(=O)N1CCC[C@H]1C(=O)N1CCC[C@H]1C(=O)N[C@@H](C)C(=O)N[C@@H](CCCCN)C(=O)N[C@@H](CC(C)C)C(=O)N[C@@H](CCC(N)=O)C(=O)N1CCC[C@H]1C(=O)N[C@@H](CCCNC(=N)N)C(=O)O)C(C)C [ghrelin]

Compound: insulin: established IDE substrate, used in CD experiments
- insulin degradation by IDE in 30% TFE [3]: does not degrade
